Data as given in patent US8802597B2, “Herbicidal pyrimidines” (E I du Pont de Nemours and Company, priority 2003, dated 2014).
Where two headings read alike, the source gives them in different places.

What was measured:
Assay type in all cases: in vivo
[1] = system: morningglory (Ipomoea coccinea); test: Test C pre/postemergence; settings: Ipomoea; for pest or weed control at 31 g/ha: 31 g ai/ha; for pest or weed control at 62 g/ha: 62 g ai/ha; for pest or weed control at 125 g/ha: 125 g ai/ha; for pest or weed control at 250 g/ha: 250 g ai/ha; for pest or weed control at 16 g/ha: 16 g ai/ha
How it was run: (§1)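 Greenhouse pot test: seeds treated preemergence, or plants at 2–18 cm (1- to 4-leaf stage) treated postemergence, with compound in non-phytotoxic solvent plus surfactant. Visual rating versus untreated controls after 12–14 days, scale 0 (no effect) to 100 (complete control); dash means not tested.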

[2] = system: woolly cupgrass (Eriochloa villosa); test: Test C pre/postemergence; settings: Eriochloa villosa; for pest or weed control at 31 g/ha: 31 g ai/ha; for pest or weed control at 62 g/ha: 62 g ai/ha; for pest or weed control at 125 g/ha: 125 g ai/ha; for pest or weed control at 250 g/ha: 250 g ai/ha; for pest or weed control at 16 g/ha: 16 g ai/ha
How it was run: as §1

[3] = system: eastern black nightshade (Solanum ptycanthum); test: Test C pre/postemergence; settings: Solanum, pre-emergence, Preemergence, read-out: Plant response rating, Nightshade; for pest or weed control at 31 g/ha: 31 g ai/ha; for pest or weed control at 62 g/ha: 62 g ai/ha; for pest or weed control at 125 g/ha: 125 g ai/ha
How it was run: as §1

[4] = system: chickweed (Stellaria media); test: Test C postemergence; settings: Stellaria media, post-emergence; for pest or weed control at 62 g/ha: 62 g ai/ha; for pest or weed control at 62 g/ha / pest or weed control at 125 g/ha: scale 0 to 100 (0 no effect, 100 complete control), read-out: Chickweed plant response rating; for pest or weed control at 125 g/ha: 125 g ai/ha
How it was run: as §1

[5] = post-emergence, Postemergence, read-out: Plant response rating (scale of 0 to 100), Morningglory
[6] = post-emergence, Postemergence, scale 0 to 100 (0 no effect, 100 complete control), read-out: Morningglory plant response rating
[7] = pre-emergence, Preemergence, scale 0 to 100, 0 no effect, 100 complete control, read-out: Plant response rating, Morningglory
[8] = pre-emergence, Preemergence, scale 0 to 100, read-out: Plant response rating, Morningglory
[9] = post-emergence, Postemergence, read-out: Plant response rating (scale of 0 to 100), Cupgrass, Woolly
[10] = post-emergence, Postemergence, scale 0 to 100 (0 no effect, 100 complete control), read-out: Cupgrass, Woolly plant response rating
[11] = pre-emergence, Preemergence, scale 0 to 100, 0 no effect, 100 complete control, read-out: Plant response rating, Cupgrass, Woolly
[12] = pre-emergence, Preemergence, scale 0 to 100, read-out: Plant response rating, Cupgrass, Woolly
[13] = scale 0 to 100, 0 no effect, 100 complete control

## CCOC(=O)c1nc(C2CC2)nc(N)c1F [Compound 30]
[1]; [5]
  pest or weed control at 31 g/ha: 90%
[1]; [6]
  pest or weed control at 62 g/ha: 90%
  pest or weed control at 125 g/ha: 95%
[1]; post-emergence, Postemergence, scale 0 to 100, read-out: Plant response rating, Morningglory
  pest or weed control at 250 g/ha: 95%
[1]; [7]
  pest or weed control at 31 g/ha: 0%
  pest or weed control at 62 g/ha: 85%
[1]; [8]
  pest or weed control at 125 g/ha: 90%
  pest or weed control at 250 g/ha: 100%
[2]; [9]
  pest or weed control at 31 g/ha: 0%
[2]; [10]
  pest or weed control at 62 g/ha: 0%
  pest or weed control at 125 g/ha: 0%
[2]; post-emergence, Postemergence, scale 0 to 100, read-out: Plant response rating, Cupgrass, Woolly
  pest or weed control at 250 g/ha: 40%
[2]; [11]
  pest or weed control at 31 g/ha: 0%
  pest or weed control at 62 g/ha: 5%
[2]; [12]
  pest or weed control at 125 g/ha: 45%
  pest or weed control at 250 g/ha: 50%
[3]; [13]
  pest or weed control at 31 g/ha: 50%
  pest or weed control at 62 g/ha: 80%
[3]; scale 0 to 100
  pest or weed control at 125 g/ha: 100%
[3]; 250 g ai/ha, scale 0 to 100
  pest or weed control at 250 g/ha: 100%
[4]; 31 g ai/ha, read-out: Plant response rating (scale of 0 to 100), Chickweed
  pest or weed control at 31 g/ha: 40%
[4]
  pest or weed control at 62 g/ha: 50%
  pest or weed control at 125 g/ha: 65%
[4]; 250 g ai/ha, scale 0 to 100, read-out: Plant response rating, Chickweed
  pest or weed control at 250 g/ha: 85%

## COC(=O)c1nc(C2CC2)nc(N)c1F [Compound 25]
[1]; [5]
  pest or weed control at 16 g/ha: 90%
  pest or weed control at 31 g/ha: 90%
[1]; [6]
  pest or weed control at 62 g/ha: 90%
  pest or weed control at 125 g/ha: 90%
[1]; [7]
  pest or weed control at 16 g/ha: 0%
  pest or weed control at 31 g/ha: 0%
  pest or weed control at 62 g/ha: 50%
[1]; [8]
  pest or weed control at 125 g/ha: 90%
[2]; [9]
  pest or weed control at 16 g/ha: 0%
  pest or weed control at 31 g/ha: 0%
[2]; [10]
  pest or weed control at 62 g/ha: 0%
  pest or weed control at 125 g/ha: 30%
[2]; [11]
  pest or weed control at 16 g/ha: 0%
  pest or weed control at 31 g/ha: 0%
  pest or weed control at 62 g/ha: 0%
[2]; [12]
  pest or weed control at 125 g/ha: 50%
[3]; 16 g ai/ha, scale 0 to 100, 0 no effect, 100 complete control
  pest or weed control at 16 g/ha: 0%
[3]; [13]
  pest or weed control at 31 g/ha: 0%
  pest or weed control at 62 g/ha: 30%
[3]; scale 0 to 100
  pest or weed control at 125 g/ha: 75%
[4]; 16 g ai/ha, read-out: Plant response rating (scale of 0 to 100), Chickweed
  pest or weed control at 16 g/ha: 0%
[4]
  pest or weed control at 62 g/ha: 40%
  pest or weed control at 125 g/ha: 85%
